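Protocol summary: plate cells (96-well), add compound at 5 concentrations, incubate 48 h, interpolate endpoints linearly. Here, GI50 denotes the concentration required for 50% inhibition of growth.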 The source made the active and inactive calls. No stated cut-off is given here; in the data, active = GI50 up to about 1.1 µM and inactive = higher.
Assays:
Assay in all cases: NCI anticancer screen, dose series, 48 h
786-0 = tested on: 786-0
A498 = tested on: A498
A549 = tested on: A549
ACHN = tested on: ACHN
CAKI-1 = tested on: CAKI-1
CCRF-CEM = tested on: CCRF-CEM
COLO 205 = tested on: COLO 205
DLD-1 = tested on: DLD-1
DMS-114 = tested on: DMS-114
DMS-273 = tested on: DMS-273
EKVX = tested on: EKVX
HCC 2998 = tested on: HCC 2998
HCT-116 = tested on: HCT-116
HCT-15 = tested on: HCT-15
HL-60 = tested on: HL-60
HOP-18 = tested on: HOP-18
HOP-62 = tested on: HOP-62
HOP-92 = tested on: HOP-92
HT-29 = tested on: HT-29
IGROV-1 = tested on: IGROV-1
K562 = tested on: K562
KM-20L2 = tested on: KM-20L2
KM12 = tested on: KM12
LOX IMVI = tested on: LOX IMVI
LXFL 529 = tested on: LXFL 529
M14 = tested on: M14
M19-MEL = tested on: M19-MEL
MOLT-4 = tested on: MOLT-4
Malme-3M = tested on: Malme-3M
NCI-H226 = tested on: NCI-H226
NCI-H23 = tested on: NCI-H23
NCI-H460 = tested on: NCI-H460
NCI-H522 = tested on: NCI-H522
OVCAR-3 = tested on: OVCAR-3
OVCAR-4 = tested on: OVCAR-4
OVCAR-5 = tested on: OVCAR-5
OVCAR-8 = tested on: OVCAR-8
RPMI-8226 = tested on: RPMI-8226
RXF 393 = tested on: RXF 393
SF-268 = tested on: SF-268
SF-295 = tested on: SF-295
SF-539 = tested on: SF-539
SK-MEL-28 = tested on: SK-MEL-28
SK-MEL-5 = tested on: SK-MEL-5
SK-OV-3 = tested on: SK-OV-3
SN12C = tested on: SN12C
SNB-19 = tested on: SNB-19
SNB-75 = tested on: SNB-75
SNB-78 = tested on: SNB-78
SR = tested on: SR
SW-620 = tested on: SW-620
TK-10 = tested on: TK-10
U-251 = tested on: U-251
UACC-257 = tested on: UACC-257
UACC-62 = tested on: UACC-62
UO-31 = tested on: UO-31
XF498 = tested on: XF498
RXF 631 = tested on: RXF 631
SK-MEL-2 = tested on: SK-MEL-2

Measured: GI50

CC1CC(c2ccc([N+](=O)[O-])cc2)=Nc2ccccc2S1 (stereo not given)
15.4 µM: HCT-15
inactive: 786-0 15.3 µM | A498 19 µM | A549 21.9 µM | ACHN 19.7 µM | CAKI-1 24.4 µM | CCRF-CEM 4.32 µM | COLO 205 24 µM | DLD-1 12.9 µM | DMS-114 17.4 µM | DMS-273 20.2 µM | EKVX 23.6 µM | HCC 2998 19.1 µM | HCT-116 1.75 µM | HL-60 7.45 µM | HOP-18 > 100 µM | HOP-62 44.9 µM | HOP-92 29 µM | HT-29 13.4 µM | IGROV-1 18 µM | K562 6.04 µM | KM-20L2 18.4 µM | KM12 12.6 µM | LOX IMVI 6.89 µM | LXFL 529 13.3 µM | M14 14.2 µM | M19-MEL 13.8 µM | MOLT-4 18.1 µM | Malme-3M 35.9 µM | NCI-H226 23.2 µM | NCI-H23 15.8 µM | NCI-H460 27.1 µM | NCI-H522 20.3 µM | OVCAR-3 11.5 µM | OVCAR-4 16.7 µM | OVCAR-5 23.9 µM | OVCAR-8 25.9 µM | RPMI-8226 2.3 µM | RXF 393 17.5 µM | SF-268 17.3 µM | SF-295 19.1 µM | SF-539 16.9 µM | SK-MEL-28 17.9 µM | SK-MEL-5 21.5 µM | SK-OV-3 17.1 µM | SN12C 18.2 µM | SNB-19 16.7 µM | SNB-75 37.6 µM | SNB-78 67.5 µM | SR 5.09 µM | SW-620 15.6 µM | TK-10 28.2 µM | U-251 15.2 µM | UACC-257 18.7 µM | UACC-62 14 µM | UO-31 11.8 µM | XF498 31.6 µM

COC(=O)/C=C1\CCC(C)O1 (stereo not given)
> 100 µM: HCT-15
inactive: 786-0 > 100 µM | A549 > 100 µM | ACHN > 100 µM | CAKI-1 > 100 µM | CCRF-CEM > 100 µM | COLO 205 > 100 µM | DLD-1 > 100 µM | DMS-114 > 100 µM | DMS-273 > 100 µM | EKVX > 100 µM | HCC 2998 > 100 µM | HCT-116 > 100 µM | HL-60 > 100 µM | HOP-62 > 100 µM | HOP-92 24 µM | HT-29 > 100 µM | IGROV-1 > 100 µM | K562 > 100 µM | KM-20L2 > 100 µM | KM12 > 100 µM | LOX IMVI > 100 µM | LXFL 529 > 100 µM | M14 > 100 µM | M19-MEL > 100 µM | MOLT-4 > 100 µM | Malme-3M > 100 µM | NCI-H23 > 100 µM | NCI-H460 > 100 µM | OVCAR-3 > 100 µM | OVCAR-4 > 100 µM | OVCAR-5 > 100 µM | OVCAR-8 > 100 µM | RPMI-8226 > 100 µM | RXF 393 > 100 µM | RXF 631 > 100 µM | SF-268 > 100 µM | SF-295 > 100 µM | SF-539 > 100 µM | SK-MEL-2 > 100 µM | SK-MEL-5 > 100 µM | SK-OV-3 > 100 µM | SN12C > 100 µM | SNB-19 > 100 µM | SNB-75 39.5 µM | SNB-78 > 100 µM | SW-620 > 100 µM | TK-10 > 100 µM | U-251 > 100 µM | UACC-257 > 100 µM | UACC-62 > 100 µM | UO-31 > 100 µM | XF498 > 100 µM

From ChEMBL document CHEMBL1201862, “PubChem BioAssay data set” (2004)
